Results as given in PMC11811597, “Phenomics‐Based Discovery of Novel Orthosteric Choline Kinase Inhibitors” (Angewandte Chemie (International Ed. in English), 2025).

Columns and labels:
CHKA = CHKA (Homo sapiens, UniProt P35790); assay: PK/LDH coupled choline kinase enzyme assay; type: biochemical; design: host or cells: E. coli BL21(DE3); conditions: concentration-dependent
Description: carried out using REFMAC[9] and COOT,[10] and concluded when no improvements resulted for Rfree and Rwork values, and when density maps indicated no further changes were justified.
Choline Coupled Enzymatic Assay
CHKA (120 ng, 24 µg/ml) was arrayed (5 µL) into a 96 well semi-skirted real time PCR plate. 4-fold dilution series and vehicle controls (0.5% DMSO) were prepared in a separate plate. A further DMSO control was included for use with a no protein well control. The dilutions (17 µL) were mixed with reaction buffer (136 µL, see Table below) and arrayed (45 µL) onto the CHKA-containing PCR plate.
After mixing, bubbles were removed by centrifugation (1000 × g, 1 min) and absorbance read at 340 nm on a PheraSTAR FSX (BMG Labtech), reading every minute for 10 min. Non-linear curve fitting and graph generation was performed using Graphpad Prism 8 software.
Components of the assay reaction buffer.
Component Stock concentration Volume per buffer Final reaction […]
Experiments were performed as described earlier with few modifications. In short, 3 replicates of intact HepG2 cells were treated with 30 µM UNC0638, UNC373 or corresponding volume of DMSO in medium-free experimental buffer for 60 min at 37 °C with end-over-end rotation. For lysates: Washed K562 cells were resuspended in medium-free experimental buffer and lysed by three freeze-thaw cycles. […]

ZNF644 = assay: Competitive affinity-based chemoproteomics (UNC0965 matrix), MCF7 lysate; type: binding, human; conditions: 20 μM competitor, n=2
Description: A-366 and UNC0638 were purchased from Tocris. ARIAD and V-11-07-11 were purchased from Wuxi Apptec. UNC0737 and UNC0965 were synthesised as previously described.[1] Hemicholinium-3 and pyruvate kinase/lactic dehydrogenase enzymes were purchased from Sigma Aldrich. Aqueous and organic solvents were MS-grade and acquired by Sigma Aldrich unless stated otherwise.
MDA-MB-231, MCF7 and HEK293 cells were cultured in DMEM (Gibco, #11965092) supplemented with 10% FBS. K562 were cultured in IMDM (Gibco, #12440053) supplemented with 10% FBS. HepG2 were cultured in MEM (Gibco, #11095080) supplemented with 10 % FBS. […]
cultured in McCoy’s 5A (Sigma, M8403) supplemented with 10 % FBS and 1x GlutaMAX (Gibco, #35050061). Cells were maintained at 37 °C in a humidified 5% CO2 atmosphere. Peripheral blood mononuclear cells (PBMC) were isolated from healthy blood donors by density centrifugation. […]
Cell Titer-Glo® reagent was added to each well and total luminescence readings were performed within 15 min using the PHERAstar FSX (BMG Labtech). […]
Digested samples were analysed by nano-UPLC–MS/MS using a Dionex Ultimate 3000 nano UPLC fitted with an EASY spray column (75 μm × 500 mm, 2 μm particle size, Thermo Scientific), coupled to an Orbitrap Q Exactive instrument. […]

CHKA, sequence (P35790 75-457 limits assumed): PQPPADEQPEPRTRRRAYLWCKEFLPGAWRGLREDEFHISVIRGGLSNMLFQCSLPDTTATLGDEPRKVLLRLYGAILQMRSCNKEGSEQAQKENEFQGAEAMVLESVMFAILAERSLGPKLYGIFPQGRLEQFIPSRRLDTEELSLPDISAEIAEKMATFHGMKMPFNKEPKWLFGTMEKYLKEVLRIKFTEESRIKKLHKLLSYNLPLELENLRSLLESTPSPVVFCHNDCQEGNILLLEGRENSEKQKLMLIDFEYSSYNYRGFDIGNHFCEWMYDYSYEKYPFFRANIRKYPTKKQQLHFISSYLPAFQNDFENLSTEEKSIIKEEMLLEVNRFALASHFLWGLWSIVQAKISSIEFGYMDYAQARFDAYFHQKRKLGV

Row | Compound | CHKA catalytic activity (CHKA) | FC vs DMSO (log2 competition), ZNF644 (ZNF644)
1 | COc1cc2c(NC3CCN(C(C)C)CC3)nc(C3CCCCC3)nc2cc1OCCCN1CCCC1 [UNC0638] | suppressed CHKA catalytic activity | -2.1553
2 | COc1cc2c(N(C)C3CCN(C(C)C)CC3)nc(C3CCCCC3)nc2cc1OCCCN1CCCC1 [UNC0737] | suppressed CHKA catalytic activity | 0.3825
